Article PMC5152890 (PLoS ONE, 2016)
pIC50: −log10 of the molar value. Read-outs that look alike come from different tables or passages of the source.

What was measured:
[1] = target: T1, hVEGFR1-ECD (Homo sapiens, UniProt P17948); format: binding; settings: for effect on the competition assay (in words): divalent cations, VEGF-A/hVEGFR1 interaction; for % displacement at 30 μM: 1% DMSO; for pIC50: read-out: IC50 [95% CI]
T1 construct: purchased R&D Systems, Abingdon, UK

[2] = target: T2, hVEGFR1d2 (Homo sapiens, UniProt P17948); test: analytical size exclusion chromatography of hVEGFR1d2 dimerization; settings: 1 mM CuSO4, 160 μM hVEGFR1d2, gel filtration
T2 construct: The human hVEGFR1d2 protein (residues 132–226) was expressed and purified; made in house; host or cells: E. coli Rosetta-gami(DE3)pLysS is stated only for the 15N-labelled batch
T2 sequence (P17948 132-226): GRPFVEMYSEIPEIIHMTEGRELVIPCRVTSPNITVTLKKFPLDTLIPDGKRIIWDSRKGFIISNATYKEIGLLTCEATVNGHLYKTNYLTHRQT
Protocol: Because the competition assay results indicated a higher effect of Cu^2+ ions compared to Zn^2+ or Co^2, the Cu^2+-induced dimerization of hVEGFR1d2 in solution was verified using analytical gel-filtration chromatography. In the presence of 1 mM EDTA a single hVEGFR1d2 peak was observed, which represents the monomer (apparent MW = 14.9 kDa). In the presence of 1 mM CuSO4, two peaks were eluted corresponding respectively to the hVEGFR1d2 dimer (78% of absorption, apparent MW = 27.9 kDa) and monomer (apparent MW = 15.8 kDa). SDS-PAGE analysis confirmed that both peaks consist of hVEGFR1d2 (Fig 7).
The Cu^2+-induced dimerization of hVEGFR1d2 was confirmed using a precalibrated analytical gel-filtration column (Superdex™75 HR 10/300 Amersham GE Healthcare, Little Chalfont, UK). Prior to loading, samples were prepared by incubating 160 μM hVEGFR1d2 in a buffer containing 25 mM Tris-HCl, pH 8.1, 250 mM NaCl, and either 1 mM EDTA or 1mM CuSO4 for 30 min at 18°C. Subsequently, 50 μL of this mixture was loaded at 0.5 mL/min on the column that was equilibrated with the identical respective buffers. Elution peaks were integrated, and the corresponding fractions were analyzed on SDS-PAGE.

[3] = biotinylated VEGF-A165 displaced by 30 μM of metal on whole ECD (d1-d7) of VEGFR1
[4] = concentration displacing 50% of biotinylated VEGF-A165 binding on VEGFR1 (ECD)

T1 sequence (P17948 27-687 isoform P17948-2): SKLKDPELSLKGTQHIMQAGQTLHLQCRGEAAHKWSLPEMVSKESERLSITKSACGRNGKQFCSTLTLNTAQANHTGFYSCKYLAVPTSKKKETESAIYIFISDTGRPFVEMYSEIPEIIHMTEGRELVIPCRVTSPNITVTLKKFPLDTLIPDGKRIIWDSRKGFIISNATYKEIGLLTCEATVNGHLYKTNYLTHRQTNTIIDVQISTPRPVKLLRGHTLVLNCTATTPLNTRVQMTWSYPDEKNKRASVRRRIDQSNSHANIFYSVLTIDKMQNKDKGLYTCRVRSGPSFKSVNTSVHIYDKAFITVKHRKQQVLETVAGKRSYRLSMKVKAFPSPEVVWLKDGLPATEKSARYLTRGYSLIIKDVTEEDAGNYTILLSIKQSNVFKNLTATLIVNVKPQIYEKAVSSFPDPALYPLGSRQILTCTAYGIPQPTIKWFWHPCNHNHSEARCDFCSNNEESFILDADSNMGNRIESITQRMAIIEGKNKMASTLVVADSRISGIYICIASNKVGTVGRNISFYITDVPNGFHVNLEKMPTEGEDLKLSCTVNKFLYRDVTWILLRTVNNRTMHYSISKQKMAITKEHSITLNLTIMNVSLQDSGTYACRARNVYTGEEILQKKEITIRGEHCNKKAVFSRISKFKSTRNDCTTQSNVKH

| Compound | % displacement at 30 μM [1, 3] [%] | pIC50 [1, 4] | also measured |
| --- | --- | --- | --- |
| [Cu+2] [Cu^2+] | – | – | disruption of the VEGF-A/hVEGFR1-ECD interaction in the presence of a metal chelator ([1]; with EDTA, 1 eq.): unable to disrupt the VEGF-A/hVEGFR1-ECD interaction |
| [Co+2] [Co^2+] | – | – | effect on the competition assay (in words) [1]: little |
| CC(=O)[O-].CC(=O)[O-].[Cu+2] [Cu(OAc)2] | 69 ± 2 | 5.88 | – |
| O=S(=O)([O-])[O-].[Co+2] [CoSO4] | 44 ± 1 | – | – |
| [Cl][Cu][Cl] [CuCl2] | 87 ± 2 | 5.90 | – |
| [Ni+2] [Ni^2+] | – | – | IC50 [95% CI] [1, 4]: within the micromolar range |
| O=S(=O)([O-])[O-].[Mn+2] [MnSO4] | 0 | – | – |
| [Fe+2] [Fe^2+] | – | – | effect on the competition assay (in words) [1]: no effect |
| O=S(=O)([O-])[O-].[Na+].[Na+] [Na2SO4] | 0 | – | – |
| CC(=O)[O-].CC(=O)[O-].[Pd+2] [Pd(OAc)2] | 97 ± 3 | 6.44 | – |
| [Cl][Pd][Cl] [PdCl2] | 93 ± 1 | 6.60 | – |
| O=S(=O)([O-])[O-].[Ni+2] [NiSO4] | 75 ± 1 | 5.45 | – |
| O=S(=O)([O-])[O-].[Fe+2] [FeSO4] | 13 ± 5 | – | – |
| O=S(=O)([O-])[O-].[Zn+2] [ZnSO4] | 61 ± 2 | 5.23 | – |
| [Zn+2] [Zn^2+] | – | – | IC50 [95% CI] [1, 4]: within the micromolar range |
| [Cl][Cd][Cl] [CdCl2] | 38 ± 4 | 4.32 | – |
| [Cl-].[Cl-].[Co+2] [CoCl2] | – | – | % displacement at 30 μM [1]: 40 ± 2%; pIC50 [1]: 4.33 |
| O=S(=O)([O-])[O-].[Cu+2] [CuSO4] | 83 ± 8 | 6.01 | hVEGFR1d2 dimer peak, % of absorption [2]: 78% |
| [Mn+2] [Mn^2+] | – | – | effect on the competition assay (in words) [1]: no effect |
| [Cd+2] [Cd^2+] | – | – | effect on the competition assay (in words) [1]: little |
